From publication PMC5951806, “Rapid labelling and covalent inhibition of intracellular native proteins using ligand-directed N-acyl-N-alkyl sulfonamide” (Nature Communications, 2018)

Experiments:
Experiment in all cases: TMT LC-MSMS of 11-labelled proteins
Format in all cases: cell-based
[1] = target: Transferrin receptor protein 1 (TFRC) (Homo sapiens, UniProt P02786)
[2] = target: Multidrug resistance-associated protein 5 (ABCC5) (Homo sapiens, UniProt O15440)
[3] = target: Prohibitin-2 (PHB2) (Homo sapiens, UniProt Q99623); conditions: SKBR3 cells; for Abundance Ratio: (11) / (DMSO): 11 0.5 µM 3 h vs DMSO; for Abundance Ratio: (11) / (11 with PU-H71): 11 0.5 µM 3 h vs with PU-H71 10 µM
[4] = target: T1, Aldehyde dehydrogenase family 1 member A3 (ALDH1A3) (Homo sapiens, UniProt P47895)
T1 sequence (P47895 1-512): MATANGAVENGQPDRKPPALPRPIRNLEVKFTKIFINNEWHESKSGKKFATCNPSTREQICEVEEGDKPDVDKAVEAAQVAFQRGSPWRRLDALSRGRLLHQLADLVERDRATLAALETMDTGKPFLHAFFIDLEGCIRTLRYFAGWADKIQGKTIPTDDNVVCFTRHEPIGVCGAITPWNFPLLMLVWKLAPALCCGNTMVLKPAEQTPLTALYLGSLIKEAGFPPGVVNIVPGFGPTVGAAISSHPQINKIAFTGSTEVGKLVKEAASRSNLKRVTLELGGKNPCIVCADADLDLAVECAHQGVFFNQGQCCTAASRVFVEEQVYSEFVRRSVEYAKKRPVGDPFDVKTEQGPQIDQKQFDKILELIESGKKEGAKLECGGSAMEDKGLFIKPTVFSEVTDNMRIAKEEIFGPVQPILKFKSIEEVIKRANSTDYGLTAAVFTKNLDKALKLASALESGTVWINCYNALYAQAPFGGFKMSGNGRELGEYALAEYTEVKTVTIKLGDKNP

[5] = target: Stress-70 protein, mitochondrial (HSPA9) (Homo sapiens, UniProt P38646)
[6] = sheet Exp1, SKBR3 cells, 11 0.5 µM 3 h vs DMSO
[7] = sheet Exp1, SKBR3 cells, 11 0.5 µM 3 h vs with PU-H71 10 µM
[8] = sheet Merged, SKBR3 cells, 11 0.5 µM 3 h vs DMSO
[9] = sheet Merged, SKBR3 cells, 11 0.5 µM 3 h vs with PU-H71 10 µM

Sequence of Multidrug resistance-associated protein 5 (ABCC5) (O15440 whole entry): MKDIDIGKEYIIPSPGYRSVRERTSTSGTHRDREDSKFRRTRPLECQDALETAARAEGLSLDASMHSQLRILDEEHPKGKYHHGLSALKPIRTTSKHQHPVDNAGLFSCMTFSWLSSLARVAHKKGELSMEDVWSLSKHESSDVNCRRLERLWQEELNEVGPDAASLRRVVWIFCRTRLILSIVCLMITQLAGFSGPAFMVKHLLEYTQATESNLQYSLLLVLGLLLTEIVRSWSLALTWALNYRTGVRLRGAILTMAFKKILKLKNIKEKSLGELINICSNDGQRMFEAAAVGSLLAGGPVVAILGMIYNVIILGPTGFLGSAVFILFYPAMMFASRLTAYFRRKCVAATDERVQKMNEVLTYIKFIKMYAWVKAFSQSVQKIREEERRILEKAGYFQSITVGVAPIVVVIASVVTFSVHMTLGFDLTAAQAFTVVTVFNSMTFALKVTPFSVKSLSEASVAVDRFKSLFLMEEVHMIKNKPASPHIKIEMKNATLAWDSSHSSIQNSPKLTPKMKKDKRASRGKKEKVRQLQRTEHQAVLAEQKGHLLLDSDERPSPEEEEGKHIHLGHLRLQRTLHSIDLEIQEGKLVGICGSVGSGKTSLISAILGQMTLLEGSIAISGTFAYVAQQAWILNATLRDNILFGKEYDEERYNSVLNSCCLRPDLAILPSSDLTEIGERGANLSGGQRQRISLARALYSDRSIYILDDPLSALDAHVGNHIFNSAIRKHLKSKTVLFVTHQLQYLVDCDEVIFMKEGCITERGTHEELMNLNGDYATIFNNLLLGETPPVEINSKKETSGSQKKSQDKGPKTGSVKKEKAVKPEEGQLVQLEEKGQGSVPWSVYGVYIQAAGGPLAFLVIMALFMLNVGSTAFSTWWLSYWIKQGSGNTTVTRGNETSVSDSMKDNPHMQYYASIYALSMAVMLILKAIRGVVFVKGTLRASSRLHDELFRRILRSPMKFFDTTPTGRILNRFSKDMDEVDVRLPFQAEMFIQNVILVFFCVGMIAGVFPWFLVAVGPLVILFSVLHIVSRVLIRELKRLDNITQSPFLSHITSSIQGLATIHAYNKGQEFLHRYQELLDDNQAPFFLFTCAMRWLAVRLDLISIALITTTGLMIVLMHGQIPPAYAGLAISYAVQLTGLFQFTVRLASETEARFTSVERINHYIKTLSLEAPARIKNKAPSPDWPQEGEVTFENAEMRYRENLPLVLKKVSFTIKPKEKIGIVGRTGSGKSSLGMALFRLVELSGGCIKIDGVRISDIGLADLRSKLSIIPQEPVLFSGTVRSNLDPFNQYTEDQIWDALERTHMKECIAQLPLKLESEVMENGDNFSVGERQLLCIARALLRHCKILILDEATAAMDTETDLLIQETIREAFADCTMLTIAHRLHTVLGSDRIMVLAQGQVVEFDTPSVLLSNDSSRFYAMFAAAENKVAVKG
Sequence of Prohibitin-2 (PHB2) (Q99623 whole entry): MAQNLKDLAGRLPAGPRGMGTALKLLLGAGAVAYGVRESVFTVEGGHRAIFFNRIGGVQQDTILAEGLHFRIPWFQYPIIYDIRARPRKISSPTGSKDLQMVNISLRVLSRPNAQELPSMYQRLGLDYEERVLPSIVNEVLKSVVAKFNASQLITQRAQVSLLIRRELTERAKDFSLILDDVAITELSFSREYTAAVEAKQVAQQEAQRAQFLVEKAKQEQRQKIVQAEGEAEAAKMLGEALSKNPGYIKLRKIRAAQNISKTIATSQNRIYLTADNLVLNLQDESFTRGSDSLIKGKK
Sequence of Prohibitin-2 (PHB2) (P35232 whole entry partner): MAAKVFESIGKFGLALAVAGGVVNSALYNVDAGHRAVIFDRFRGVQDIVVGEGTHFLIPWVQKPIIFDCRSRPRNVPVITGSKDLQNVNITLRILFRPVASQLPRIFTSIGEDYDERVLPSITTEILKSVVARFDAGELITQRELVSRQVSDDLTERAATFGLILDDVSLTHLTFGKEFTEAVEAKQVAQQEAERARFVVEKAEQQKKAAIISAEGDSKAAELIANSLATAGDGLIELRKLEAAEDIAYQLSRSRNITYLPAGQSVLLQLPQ
Sequence of Stress-70 protein, mitochondrial (HSPA9) (P38646 47-679): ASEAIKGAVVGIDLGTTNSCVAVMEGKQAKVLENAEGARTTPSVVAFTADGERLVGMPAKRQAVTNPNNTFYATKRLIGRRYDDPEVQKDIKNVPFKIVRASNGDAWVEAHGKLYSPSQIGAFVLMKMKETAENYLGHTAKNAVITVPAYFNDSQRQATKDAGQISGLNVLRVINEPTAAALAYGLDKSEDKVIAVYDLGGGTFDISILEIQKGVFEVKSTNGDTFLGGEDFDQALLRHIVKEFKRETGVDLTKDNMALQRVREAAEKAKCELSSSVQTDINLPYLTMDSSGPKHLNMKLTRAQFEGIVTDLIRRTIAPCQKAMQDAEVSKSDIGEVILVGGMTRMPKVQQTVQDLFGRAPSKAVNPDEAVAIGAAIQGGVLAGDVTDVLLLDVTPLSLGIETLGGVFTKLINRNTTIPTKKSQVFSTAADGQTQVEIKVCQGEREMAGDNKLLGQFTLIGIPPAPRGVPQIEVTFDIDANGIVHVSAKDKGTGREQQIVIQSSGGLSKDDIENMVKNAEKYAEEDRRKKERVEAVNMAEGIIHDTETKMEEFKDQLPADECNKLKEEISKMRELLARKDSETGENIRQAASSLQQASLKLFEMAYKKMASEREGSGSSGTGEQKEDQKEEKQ
Sequence of Transferrin receptor protein 1 (TFRC) (P02786 whole entry): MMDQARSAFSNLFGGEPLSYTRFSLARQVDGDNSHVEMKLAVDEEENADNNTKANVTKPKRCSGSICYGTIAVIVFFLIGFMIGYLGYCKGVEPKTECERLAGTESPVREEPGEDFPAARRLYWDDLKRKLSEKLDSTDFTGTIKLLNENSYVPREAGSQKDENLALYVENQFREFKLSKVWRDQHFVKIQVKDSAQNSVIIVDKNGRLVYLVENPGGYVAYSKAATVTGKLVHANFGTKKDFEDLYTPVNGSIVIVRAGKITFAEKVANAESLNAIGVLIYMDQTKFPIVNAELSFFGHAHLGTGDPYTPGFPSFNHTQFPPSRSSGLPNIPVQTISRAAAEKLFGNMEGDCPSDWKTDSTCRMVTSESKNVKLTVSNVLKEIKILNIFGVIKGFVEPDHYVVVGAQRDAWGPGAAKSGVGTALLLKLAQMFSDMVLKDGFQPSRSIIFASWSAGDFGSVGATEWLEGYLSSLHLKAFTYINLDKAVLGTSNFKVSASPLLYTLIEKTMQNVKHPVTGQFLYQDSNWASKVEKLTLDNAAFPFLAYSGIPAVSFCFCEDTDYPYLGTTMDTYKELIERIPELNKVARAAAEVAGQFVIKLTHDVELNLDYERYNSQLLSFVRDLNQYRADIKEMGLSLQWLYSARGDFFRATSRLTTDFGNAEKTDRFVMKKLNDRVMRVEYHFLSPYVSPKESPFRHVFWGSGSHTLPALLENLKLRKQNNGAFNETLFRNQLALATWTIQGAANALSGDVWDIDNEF

CC(=O)Oc1ccc2c(c1)Oc1cc(OC(C)=O)ccc1C21OC(=O)c2cc(C(=O)NCCOCCOCCNC(=O)CCCC(=O)N(CC#N)S(=O)(=O)c3ccc(C(=O)NCCCn4c(Sc5cc6c(cc5I)OCO6)nc5c(N)ncnc54)cc3)ccc21 [compound 11]
Abundance Ratio: (11) / (DMSO) [1, 6]: 1.5
Abundance Ratio: (11) / (11 with PU-H71) [1, 7]: 0.917
Abundance Ratio: (11) / (11 with PU-H71) ([1]; sheet Exp2, TFRC): 1.036
Abundance Ratio: (11) / (DMSO) ([1]; sheet Exp2, TFRC): 2.96
Abundances (Grouped): 11 ([1]; sheet Exp2, TFRC): 95.6
Abundances (Grouped): 11 with PU-H71 ([1]; sheet Exp2, TFRC, with PU-H71): 92.3
Abundance Ratio: (11) / (DMSO) [1, 8]: 2.107
Abundance Ratio: (11) / (11 with PU-H71) [1, 9]: 0.975
Abundance Ratio: (11) / (11 with PU-H71) ([2]; Exp3, ABCC5): 0.868
Abundance Ratio: (11) / (DMSO) ([2]; Exp3, ABCC5): 4.007
Abundances (Grouped): 11 ([2]; Exp3, ABCC5): 227.2
Abundances (Grouped): 11 with PU-H71 ([2]; Exp3, ABCC5): 261.9
Abundance Ratio: (11) / (DMSO) [2, 6]: 1.935
Abundance Ratio: (11) / (11 with PU-H71) [2, 7]: 1.002
Abundance Ratio: (11) / (11 with PU-H71) ([2]; sheet Exp2, ABCC5): 0.947
Abundance Ratio: (11) / (DMSO) ([2]; sheet Exp2, ABCC5): 2.92
Abundances (Grouped): 11 ([2]; sheet Exp2, ABCC5): 189.2
Abundances (Grouped): 11 with PU-H71 ([2]; sheet Exp2, ABCC5): 199.7
Abundance Ratio: (11) / (DMSO) [2, 8]: 3.871
Abundance Ratio: (11) / (11 with PU-H71) [2, 9]: 0.868
Abundance Ratio: (11) / (DMSO) ([3]; sheet Exp1): 1.815
Abundance Ratio: (11) / (11 with PU-H71) ([3]; sheet Exp1): 0.795
Abundance Ratio: (11) / (DMSO) ([3]; sheet Merged): 1.815
Abundance Ratio: (11) / (11 with PU-H71) ([3]; sheet Merged): 0.795
Abundance Ratio: (11) / (11 with PU-H71) ([4]; Exp3, ALDH1A3): 0.892
Abundance Ratio: (11) / (DMSO) ([4]; Exp3, ALDH1A3): 4.34
Abundances (Grouped): 11 ([4]; Exp3, ALDH1A3): 42.1
Abundances (Grouped): 11 with PU-H71 ([4]; Exp3, ALDH1A3, with PU-H71): 47.2
Abundance Ratio: (11) / (DMSO) [4, 6]: 5.076
Abundance Ratio: (11) / (11 with PU-H71) [4, 7]: 0.894
Abundance Ratio: (11) / (DMSO) [4, 8]: 4.694
Abundance Ratio: (11) / (11 with PU-H71) [4, 9]: 0.893
Abundance Ratio: (11) / (11 with PU-H71) ([5]; Exp3, HSPA9): 0.949
Abundance Ratio: (11) / (DMSO) ([5]; Exp3, HSPA9): 2.217
Abundances (Grouped): 11 ([5]; Exp3, HSPA9): 31.7
Abundances (Grouped): 11 with PU-H71 ([5]; Exp3, HSPA9, with PU-H71): 33.4
Abundance Ratio: (11) / (DMSO) [5, 8]: 2.217
Abundance Ratio: (11) / (11 with PU-H71) [5, 9]: 0.949
